A short description of series [1]: Net charge of self-assembling peptides in solution. It counts as physicochemical. The conditions noted are these: for net charge as a function of pH: around neutral pH; for Net charge at pH 7.5: in solution at pH 7.5. The source says:
Several exemplary self-assembling peptides described herein (Table 5; SEQ ID NO:21-40) were designed to have a net charge, positive or negative, when formulated at pH 7.5. In contrast, previously-described self-assembling peptides have a net zero charge at the same pH.

For the next series, the system named is pig stomach submucosa. The series is described as follows: Submucosal injection in in vivo porcine model, stomach. The conditions noted are these: 2 mL of 0.1% (w/v) peptide, 0.9% NaCl, pH 7.5; pig stomach. The method, then:
An in vivo porcine animal model was used to perform endoscopic mucosal and submucosal dissections as described in Uraoka et al. (2009) Drug Des. Devel. Ther. 2:131-8, incorporated herein by reference. Briefly, 2 mL of select peptide formulations were injected in between the […] in stomach of a pig and the submucosa was dissected using electro-knife. The gross appearance of the injection site and of dissected submucosal tissues at the injection sites were analyzed. […] Therefore, an in vivo porcine model system was used to assess the ability of these compositions to induce submucosal elevation upon injection into gastrointestinal submucosa, and the degree of tissue damage. In this model, submucosal injections with liquid compositions were performed and the morphology of the site of injection analyzed. Submucosal injection with aqueous solutions is used during the excision of lesions from the gastrointestinal tract in order to facilitate removal of the lesion by providing a safety cushion during resection (see, e.g., Kim et al. (2013) World J. Gastroenterol. 19(20): 3069-76, incorporated herein by reference). Here, aqueous pharmaceutical compositions comprising three exemplary self-assembling peptides formulated at pH 7.5: KLNL12 (SEQ ID NO:21), NLKL12 (SEQ ID NO:23) or KIQI13 (SEQ ID NO:29), were compared to an aqueous pharmaceutical composition comprising the previously described RADA16 self-assembling peptide (formulated at pH 2.5), a 0.4% solution of sodium hyaluronate (MucoUp®, Boston Scientific Japan K.K., Tokyo, Japan), and saline, pH 7.5.

Series [2] can be described thus: Viscosity determination at increasing shear rate (shear thinning). The settings on record: pH 7.5. Type of series: physicochemical. The method, then: Peptides formulated as aqueous solutions (200 μL), were placed between the plates of a rheometer (DHR-1, TA Instruments, 20 mm plates at a measuring geometry of 500 μm) and the viscosity was measured from 0.001 s^−1 to 100 s^−1 shear rate. Thixotropic Measurements
In some clinical applications, administration of pharmaceutical compositions comprising self-assembling peptides requires exposing the compositions to pressure and/or shear thinning (e.g., during injection through a syringe needle or transferred via a pump-based system). […] To determine the shear thinning properties of pharmaceutical compositions of the self-assembling peptides formulated at pH 7.5, formulations comprising varying ionic strengths were prepared using different concentrations of sodium chloride, and viscosity measured at increasing shear rates. Thixotropic properties of formulations were also determined as well as the storage modulus over time at specific frequencies and pressure.
FIGS. 6-8 show the experimentally determined viscosity of aqueous pharmaceutical compositions comprising either 1% (w/v) KLNL12 (SEQ ID NO:21), 1% (w/v) IQIK13 (SEQ ID NO:28), or 1% (w/v) NLEL12 (SEQ ID NO:33), at pH 7.5. FIGS. 9 and 10 show the experimentally determined viscosity of aqueous pharmaceutical compositions comprising either 1% KLNL12 (SEQ ID NO:21) or 1% NLEL12 (SEQ ID NO:33), and 0.9% NaCl (to mimic physiological conditions) at pH 7.5. […] That is, decreased viscosity with increasing sheer rate. This property may advantageously facilitate application and use of the pharmaceutical compositions (e.g., due to decreased viscosity while pumping) while maintaining a desirable viscosity at a site of application (e.g., where no sheer force is being applied).

The nature of series [3]: Thixotropic measurements (storage modulus after shear). Type of series: physicochemical. The settings on record: 1% peptide, 0.9% NaCl, pH 7.5; 1000 1/s shear for 1 min. On the procedure: Peptides formulated as aqueous solutions (200 μL), were placed between the plates of a rheometer (DHR-1, TA Instruments, 20 mm plates at a measuring geometry of 500 μm) and the sample was exposed to a fast plate rotation at 1000 s^−1 of shear rate for 1 minute and the storage modulus was measured at 1 rad s^−1 angular frequency for 10 minutes.
FIGS. 11 and 12 show the thixotropic properties of pharmaceutical compositions comprising 1% KLNL12 (SEQ ID NO:21) or 1% NLEL12 (SEQ ID NO:33), and 0.9% NaCl, at pH 7.5, after shear stress is removed. The aqueous pharmaceutical compositions were flowed at 1000 l/s of shear rate for 1 min and their storage modulus at 10 rad/s of frequency and at 0.1 Pa of stress was tested over time.

Series [4] is described as follows: Frequency sweep test (storage modulus) before and after exposure to DMEM. Type of series: physicochemical. The conditions noted are these: 1% (w/v) peptide, pH 7.5. On the procedure: Peptides formulated as aqueous solutions were placed between the plates of a rheometer (DHR-1, TA Instruments, 20 mm plates at a measuring geometry of 500 μm or 40 mm cone and plate at a measuring geometry of 2.0° of cone angle) and frequency stress sweep tests were performed at 0.1 Hz to 10 Hz of frequency with 0.1% of strain; measurements were performed after 2 minutes of relaxation time at 37° C. To do frequency sweep tests after exposure to Dulbecco's Modified Eagle Medium (DMEM), 10 mL of DMEM was added in chamber surrounding the plates, the sample in plates was submerged into the DMEM and the frequency test was performed as described after 20 minutes.
Rheological properties of aqueous pharmaceutical compositions comprising the exemplary self-assembling peptides KLNL12 (SEQ ID NO:21), KIQI13 (SEQ ID NO:29), or NLEL12 (SEQ ID NO:33) were determined by performing a frequency sweep test over storage modulus.
In some embodiments, peptides formulated as aqueous solutions, volume 700 μl, were placed between the plates of a rheometer (DHR-1, TA Instruments, 40 mm cone and plate at a measuring geometry of 2.0° of cone angle) and frequency sweep tests were performed at 0.1 Hz to 10 Hz of frequency with 0.1% of strain; measurements were performed after 2 minutes of relaxation time at 37° C. In some embodiments, frequency sweep tests were performed after exposure to Dulbecco's Modified Eagle Medium (DMEM), where 10 mL of DMEM was added in chamber surrounding the plates, the sample in plates was submerged into the DMEM and the frequency test was performed as described after 20 minutes.

In a further series the test system is porcine esophagus mucosa. The experiment in a line: Submucosal injection in in vivo porcine esophagus. The settings on record: pig, in vivo. The method, then:
In another embodiment, mucosal aggregation visualized as white precipitate near the injection site was evaluated in an in vivo porcine esophagus.

Peptide text beside a SMILES is read from it.

In the case of `CC(=O)N[C@@H](CCCCN)C(=O)N[C@@H](CC(C)C)C(=O)N[C@@H](CC(N)=O)C(=O)N[C@@H](CC(C)C)C(=O)N[C@@H](CCCCN)C(=O)N[C@@H](CC(C)C)C(=O)N[C@@H](CC(N)=O)C(=O)N[C@@H](CC(C)C)C(=O)N[C@@H](CCCCN)C(=O)N[C@@H](CC(C)C)C(=O)N[C@@H](CC(N)=O)C(=O)N[C@@H](CC(C)C)C(N)=O` [KLNL12, Ac-KLNLKLNLKLNL-NH2] (Ac-KLNLKLNLKLNL-NH2), in series [1], the “net charge as a function of pH” value was “about +3”. For the same molecule, in series [1], the “Net charge at pH 7.5” value is “+3”. Moreover, in the series with pig stomach submucosa, the “submucosal elevation after injection” value is reported as “resulted in submucosal elevation”. Further, the “submucosal elevation over time compared with saline and MucoUp” value in the series on pig stomach submucosa is “better submucosal elevation than saline and MucoUp®”. Moreover, the “viscosity in response to increasing shear rate” value in series [2] (1% (w/v) peptide) was “exhibit sheer thinning”; in series [2] (1% peptide, 0.9% NaCl) it was “exhibit sheer thinning”. Further, the “thixotropic properties (storage modulus over time after shear stress is removed)” value in series [3] was “exhibited thixotropic properties”. For the same molecule, the “rheological properties (mechanical strength) before and after exposure to DMEM” value in series [4] (0.9% NaCl) and in series [4] was “increased after DMEM treatment” throughout.
Turning to `CC(=O)N[C@@H](CC(N)=O)C(=O)N[C@@H](CC(C)C)C(=O)N[C@@H](CCC(=O)O)C(=O)N[C@@H](CC(C)C)C(=O)N[C@@H](CC(N)=O)C(=O)N[C@@H](CC(C)C)C(=O)N[C@@H](CCC(=O)O)C(=O)N[C@@H](CC(C)C)C(=O)N[C@@H](CC(N)=O)C(=O)N[C@@H](CC(C)C)C(=O)N[C@@H](CCC(=O)O)C(=O)N[C@@H](CC(C)C)C(N)=O` [NLEL12, Ac-NLELNLELNLEL-NH2] (Ac-NLELNLELNLEL-NH2), in series [1], the “net charge as a function of pH” value is “about −3”. Further, the “Net charge at pH 7.5” value in series [1] was −3. Besides, the “mucosal aggregation at injection sites” value in the series with porcine esophagus mucosa is “mucosal aggregation was not observed”. Besides, the “Appearance of stomach mucosa” value in the series on porcine esophagus mucosa (pH 7.5) is listed as “clear/transparent”. Moreover, the “viscosity in response to increasing shear rate” value in series [2] (1% (w/v) peptide) was “exhibit sheer thinning”; in series [2] (1% peptide, 0.9% NaCl), “exhibit sheer thinning”. The “thixotropic properties (storage modulus over time after shear stress is removed)” value in series [3] is “exhibited thixotropic properties”. The “rheological properties (mechanical strength) before and after exposure to DMEM” value in series [4] (0.9% NaCl) and in series [4] was “increased after DMEM treatment” throughout.
